Key:
cytomegalovirus (CMV) = conditions: ranking among herpes viruses; cited from earlier work
[1] = system: human herpesvirus (HHV-6); conditions: ranking among herpes viruses; cited from earlier work
[2] = system: patient with a history of plaque psoriasis; assay: Case study 1: valacyclovir treatment of a plaque psoriasis patient; type: in vivo, human
Procedure: A patient with a history of plaque psoriasis over the last several years was diagnosed by their physician. Patient was treated with valacyclovir tablets at 500 mg taken 2 times a day for 20 days.

[3] = system: patient with a history of reoccurring plaque psoriasis; assay: Case study 2: Valtrex (valacyclovir) treatment of a plaque psoriasis patient; type: in vivo, human; conditions: tablets 500 mg 3 times a day for several weeks, then 1.0 gram 3 times a day for several weeks; person
Procedure: A person with a history of reoccurring plaque psoriasis over the last 30 years, as diagnosed by their physician, began treatment with […] (valacyclovir) tablets at 500 mg taken 3 times a day for several weeks. Dosage of […] increased to 1.0 gram taken 3 times a day for several weeks. Both the psoriatic lesions and other symptoms associated with psoriasis improved and cleared to 75-80% recovery.

patients with psoriasis [4] = conditions: cited from earlier work
[5] = system: patients with psoriatic lesions / psoriatic arthritis; conditions: cited from earlier work
patients with psoriasis [6] = conditions: 10 week trial, cited from earlier work
pustular psoriasis = conditions: in vivo; cited from earlier work
[7] = system: patients with plaque psoriasis; conditions: after 8 weeks of therapy; cited from earlier work
[8] = system: psoriatic lesions of patients; conditions: once daily over 24 days; cited from earlier work

Q: What does the source list for Nc1nc2c(ncn2COCCO)c(=O)[nH]1 [acyclovir]?
A: activity against virus (cytomegalovirus (CMV)): least active; activity against virus [1]: least active

Q: Which results are given for CC(C)[C@H](N)C(=O)OCCOCn1cnc2c(=O)[nH]c(N)nc21 [valacyclovir]?
A: reoccurrence of the psoriatic symptoms ([2]; since treatment ended): No reoccurrence; recovery from the psoriasis ([2]; tablets 500 mg 2 times a day for 20 days, person, plaque psoriasis): complete recovery; recovery (psoriatic lesions and other symptoms improved and cleared) [3]: 75-80%

Q: Which “long-lasting clearing of lesions after last treatment” value (patients with psoriasis [4]; one patient with acute exacerbating psoriasis) does the source give for basiliximab here?
A: more than 10 weeks

Q: What about the improvement of lesions (patients with psoriasis [4]; second patient with stable chronic plaque psoriasis) of the same molecule?
A: did not show improvement

Q: For etanercept, which “mean improvement of psoriatic lesions” value ([5]; 12 weeks) is on record?
A: 46%

Q: And the “response to treatment in patients diagnosed with psoriatic arthritis” value ([5]; psoriatic arthritis)?
A: 73%

Q: With hu1124: anti-CD11a-antibody as the molecule, how does the “patients with headaches, chills, and fever” value (patients with psoriasis [6]) read?
A: over half of the patients

Q: And the improvement of psoriasis (patients with psoriasis [6]; high dose group)?
A: only moderate improvement

Q: For “infliximab: monoclonal antibody directed against TNF-α”, which “treating and sustaining clearing of pustular psoriasis” value (pustular psoriasis) is on record?
A: highly effective

B1: daclizumab: monoclonal antibody masking the cellular receptor CD25 for IL-2 (antibody, chains of the INN, looked up, V domains shown)
VH: QVQLVQSGAEVKKPGSSVKVSCKASGYTFTSYRMHWVRQAPGQGLEWIGYINPSTGYTEYNQKFKDKATITADESTNTAYMELSSLRSEDTAVYYCARGGGVFDYWGQGTLVTVSS
VL: DIQMTQSPSTLSASVGDRVTITCSASSSISYMHWYQQKPGKAPKLLIYTTSNLASGVPARFSGSGSGTEFTLTISSLQPDDFATYYCHQRSTYPLTFGQGTKVEVK
Q: With B1 as the molecule, how does the “patients experiencing a reduction in severity of plaque psoriasis” value [7] read?
A: 30%

B2: IL-10: cytokine, inhibitor of Th1-type cell priming and Th2-type mediator (protein, UniProt P22301 19-178, looked up)
Interleukin-10: SPGQGTQSENSCTHFPGNLPNMLRDLRDAFSRVKTFFQMKDQLDNLLLKESLLEDFKGYLGCQALSEMIQFYLEEVMPQAENQDPDIKAHVNSLGENLKTLRLRLRRCHRFLPCENKSKAVEQVKNAFNKLQEKGIYKAMSEFDIFINYIEAYMTMKIRN
Q: For B2, which “improvement to psoriatic lesions” value [8] is on record?
A: some improvement

Source: patent US20050282833A1, “Pharmacological treatment of psoriasis” (priority 2002, published 2005)
